Values quoted from earlier work in patent US20230172920A1, “DOSING REGIMEN FOR TREATING A DISEASE MODULATED BY CSF-1R” (Novartis AG, priority 2020, published 2023).
Where two headings read alike, the source gives them in different places.

B1: MCS110: monoclonal antibody against CSF-1 ligand (antibody, chains of the INN, looked up, V domains shown)
VH: QVQLQESGPGLVKPSQTLSLTCTVSDYSITSDYAWNWIRQFPGKGLEWMGYISYSGSTSYNPSLKSRITISRDTSKNQFSLQLNSVTAADTAVYYCASFDYAHAMDYWGQGTTVTVSS
VL: DIVLTQSPAFLSVTPGEKVTFTCQASQSIGTSIHWYQQKTDQAPKLLIKYASESISGIPSRFSGSGSGTDFTLTISSVEAEDAADYYCQQINSWPTTFGGGTKLEIK

Legend:
[1] = Phase 2b/3 clinical trial; cited from earlier work
[2] = cited from earlier work

Row | Molecule | serum enzyme increases in clinical trials ([2]; human, in vivo) | other results
1 | Cc1ccc(NC(=O)c2ccc(CN3CCN(C)CC3)cc2)cc1Nc1nc(-c2cccnc2)cs1 [masitinib] |  | disease progression in patients with ALS [1]: significant delay of disease progression
2 | FC(F)(F)c1ccc(CNc2ccc(Cc3c[nH]c4ncc(Cl)cc34)cn2)cn1 [PLX3397, reference compound] |  | serum enzyme increases in clinical trials ([2]; literature reports): Asymptomatic serum enzyme increases
3 | FPA008: monoclonal antibody against CSF-1R | Asymptomatic serum enzyme increases | 
4 | B1 | Asymptomatic serum enzyme increases | 
